This note sets out measurements from patent US20240082218A1, “PHARMACEUTICAL COMBINATIONS COMPRISING A KRAS G12C INHIBITOR AND USES OF A KRAS G12C INHIBITOR FOR THE TREATMENT OF CANCERS” (priority 2020, published 2024).

The test system of this experiment is Lu99 KRAS G12C lung carcinoma xenograft. Kind of experiment: Anti-tumor efficacy in Lu99 KRAS G12C lung carcinoma xenografts. The class given is in vivo, mice. The note with it: Lu99, oral, Compound A 100 mg/kg once daily, alone or in combination.

Experimental: It carries the allele NM_033360.4(KRAS):c.34G>T and consequently a heterozygous KRAS Gly12Cys mutation. Lu99 cells were grown in sterile conditions in a 37° C. incubator with 5% CO2 for two weeks. The cells were kept in RPMI media supplemented with 10% FCS, 2 mM L-Glutamin, 1 mM sodium pyruvate and 10 mM HEPES, and split 1:6 every 3 days. […] On the day of injection, cells were harvested after 8 passages in total, including passages from the vendor. Cells were resuspended in 50% HBSS and 50% Matrigel at a final concentration of 10·10^6 cells/ml.
Experiments were performed with female nude mice (Charles River Laboratories, Crl:NU(NCr)-Foxn1nu Homozygous). […] Animals were allowed to accommodate at least for 7 days.
Mice were injected subcutaneously with Lu99 human NSCLC cells to induce xenograft tumors and randomized into treatment groups when the mean tumor volume reached ˜250 mm^3.
The control group received a solution of 0.1% Tween 80 (Fisher Scientific AG #BP338-500) and 0.5% Methylcellulose in water.
The treatment period was between 9 to 28 days, depending on the groups.
Tumor growth was monitored regularly post cell inoculation and animals were randomized into treatment groups (n=6) when TV reached appropriate volume. During the treatment period, xenograft tumor sizes were measured about 2-3 times per week manually with calipers, and the TV was estimated in mm^3 using the formula: Length×Width^2/2.
Mice were injected subcutaneously with Lu99 human NSCLC cells to induce xenograft tumors and randomized into treatment groups when the mean tumor volume reached ˜200 mm^3. […] The treatment period was between 14 to 35 days, depending on the groups. Animals treated with vehicle were terminated at day 14. […] Tumor volumes were recorded and are represented as mean±SEM (standard error of the mean) for each group. Anti-tumor response of treatment groups vs. vehicle group was calculated at day 14 as % T/C or % regression.

In the case of `C[C@@H]1OCC2(CCN(c3cnc(Sc4ccnc(N)c4Cl)c(N)n3)CC2)[C@@H]1N` [TNO155, (3S,4S)-8-(6-amino-5-((2-amino-3-chloropyridin-4-yl)thio)pyrazin-2-yl)-3-methyl-2-oxa-8-azaspiro[4.5]decan-4-amine], the “anti-tumor response (Example 7)” value (TNO155 10 mg/kg twice daily continuous) is on record as “slight tumor growth delay”. Also, the “anti-tumor response (Example 6)” value (TNO155 10 mg/kg twice daily, up to 28 days) is given as “moderate anti-tumor response”.
